# The source made the active and inactive calls.
# Columns and labels:
# [1] = system: BJ; assay: cytotoxicity toward BJ-TERT-LT-ST fibroblasts, dose response, cell-based, RAS-independent, luminescence (AID 1935); type: functional; conditions: Homo sapiens;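 note: BJ fibroblasts immortalized with TERT plus LT and ST oncogenes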
# [2] = Luminescence Cell-Based Dose Confirmation HTS to Identify Inhibitors of Platelet Dense Granule Release. [Related pubchem assays: 1663 (Primary HTS), 1678 (Summary of Project)]; type: functional
# [3] = Shn3 3'UTR reporter inhibitors, dose response, cell-based, Clone20 osteoblasts, firefly luciferase, cherry-picked (AID 624132); type: functional;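 note: firefly luciferase luminescence from reporter carrying the Shn3 3'UTR in osteoblasts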
# [4] = inhibitors of clade B AD8 Env fusion, dose response, cell-based, cherry-pick (AID 652062); type: functional;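 note: luciferase signal from cell-cell fusion driven by HIV-1 clade B AD8 Env; potency is for inhibitors of fusion seen as a drop in luminescence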
# [5] = system: BJ; assay: cytotoxicity toward Ras-transformed BJeLR fibroblasts, dose response, cell-based, alamar blue fluorescence, cherrypicked samples (AID 2631); type: functional; conditions: Homo sapiens;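 note: confirmatory dose-response assay in RAS-dependent BJ fibroblasts engineered with TERT, LT and ST, with cytotoxicity read by fluorescence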
# [6] = A549 cell cytotoxicity, dose response, cytotoxicity control, plate reader, cherry-pick, antagonist series (AID 743412); type: functional, cell-based
# [7] = inhibitors of HIV Env-driven cell fusion, dose response, cherry-pick (AID 652057); type: functional, cell-based
# [8] = HEK293 cell cytotoxicity, dose response, cytotoxicity control, plate reader, cherry-picked samples (AID 743446); type: functional, cell-based
# [9] = system: BJ; assay: cytotoxicity toward BJ-TERT fibroblasts, dose response, cell-based, RAS-independent, luminescence (AID 1933); type: functional; conditions: Homo sapiens
# [10] = HepG2 cell cytotoxicity, dose response, cytotoxicity control for Shn3 inhibitor project, CellTiter-Glo, cherry-picked (AID 624134); type: functional, cell-based
# [11] = system: BJ; assay: cells; type: functional, cell-based; conditions: Homo sapiens
# [12] = cytotoxicity in HEK-293T NF-kB-Luc cells, dose response, cytotoxicity control for B/T-cell NF-kB inhibitor project, cell-based, uHTS hits (AID 489019); type: functional;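 note: IC50 reflects cytotoxicity as loss of cell viability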
# [13] = cytotoxicity toward DRD oncogenic fibroblasts, dose response, cell-based, non-viral oncogenic, luminescence (AID 1934); type: functional; conditions: Homo sapiens
# [14] = off-target signal loss in HeLa-CEM21 co-culture – HeLa F-luc CTL cells, cherry-picked, counter-screen for HIV-1 Env fusion inhibitor project, dose response (AID 652040); type: functional, cell-based;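 note: potency for signal decrease marking cytotoxic or nonspecific inhibition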
# [15] = ZM109 Env clade C HIV-1 fusion inhibitors, dose response, HeLa effector, CEM target cells, luciferase, cherry-pick (AID 652058); type: functional, cell-based
# [16] = system: Jurkat; assay: antigen receptor-induced NF-kB inhibitors, dose response, Jurkat, luciferase reporter, luminescence, B- and T-cell (AID 489004); type: functional, cell-based; conditions: Homo sapiens;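 note: NF-kB luciferase reporter Jurkat cells stimulated with PMA plus ionomycin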
# [17] = HepG2 cell cytotoxicity, dose response, cytotoxicity control, plate reader, cherry-pick, antagonist series (AID 743416); type: functional, cell-based
# [18] = molecular target: Luciferin 4-monooxygenase (Photinus pyralis, UniProt P08659); assay: firefly luciferase enzyme inhibitors, dose response, biochemical, luminescence (AID 1891)
# Luciferin 4-monooxygenase, sequence (P08659 whole entry, the tested form may be a part): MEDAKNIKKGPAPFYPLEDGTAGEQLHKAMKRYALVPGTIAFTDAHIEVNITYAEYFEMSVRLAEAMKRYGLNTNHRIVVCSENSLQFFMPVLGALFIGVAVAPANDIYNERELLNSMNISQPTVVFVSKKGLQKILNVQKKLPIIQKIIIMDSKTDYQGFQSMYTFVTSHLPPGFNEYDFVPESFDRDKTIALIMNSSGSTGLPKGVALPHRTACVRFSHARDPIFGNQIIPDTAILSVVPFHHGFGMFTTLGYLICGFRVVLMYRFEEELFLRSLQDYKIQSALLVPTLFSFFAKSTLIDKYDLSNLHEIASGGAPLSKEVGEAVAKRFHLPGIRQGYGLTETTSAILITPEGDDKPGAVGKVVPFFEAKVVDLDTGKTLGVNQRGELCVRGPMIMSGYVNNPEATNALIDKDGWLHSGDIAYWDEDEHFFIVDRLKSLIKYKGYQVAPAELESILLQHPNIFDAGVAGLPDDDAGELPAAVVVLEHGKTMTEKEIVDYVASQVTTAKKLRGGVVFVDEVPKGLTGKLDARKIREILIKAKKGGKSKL
# [19] = CEM21 lymphoblast cell cytotoxicity, dose response, cytotoxicity control for viral fusion inhibitor project, CellTiter-Glo luminescence, cherry-picked (AID 652042); type: functional, cell-based;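 note: potency for signal decrease meaning cytotoxicity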
# [20] = LGR2 antagonists, dose response, cell-based, HEK293, CRE-luciferase reporter, cherry pick, set 2 (AID 743343); type: functional;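 note: transfected cells were stimulated with diluted bursicon conditioned medium after compound addition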
# [21] = MC4R antagonists, dose response, counter-screen for LGR2 antagonist project, cell-based, plate reader, cherry pick (AID 743444); type: functional;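 note: transfected HEK 293 cells stimulated with alpha-MSH peptide; potency of inhibitors of the alpha-MSH evoked signal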
# [22] = molecular target: T1, Mitochondrial peptide methionine sulfoxide reductase (Bos taurus, UniProt P54149); assay: Absorbance-based biochemical high throughput dose response assay for activators of Methionine sulfoxide reductase A (MsrA).; type: functional
# T1 sequence (P54149 whole entry): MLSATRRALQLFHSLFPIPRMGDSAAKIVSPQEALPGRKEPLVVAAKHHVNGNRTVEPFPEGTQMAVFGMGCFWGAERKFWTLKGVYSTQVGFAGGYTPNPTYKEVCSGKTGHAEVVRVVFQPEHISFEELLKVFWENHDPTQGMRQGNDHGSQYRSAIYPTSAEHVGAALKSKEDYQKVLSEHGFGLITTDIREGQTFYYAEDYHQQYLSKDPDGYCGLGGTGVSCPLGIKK
# [23] = molecular target: Melanocortin receptor 4 (Homo sapiens, UniProt P32245); type: functional, cell-based;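 note: Cell-based assay with luminescence read-out, confirmatory dose-response testing for agonist activity of biased ligands at MC4R; human U2OS cells with tagged receptor and beta-arrestin; potency of agonists that increase receptor coupling to beta-arrestin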
# Melanocortin receptor 4, sequence (P32245 whole entry): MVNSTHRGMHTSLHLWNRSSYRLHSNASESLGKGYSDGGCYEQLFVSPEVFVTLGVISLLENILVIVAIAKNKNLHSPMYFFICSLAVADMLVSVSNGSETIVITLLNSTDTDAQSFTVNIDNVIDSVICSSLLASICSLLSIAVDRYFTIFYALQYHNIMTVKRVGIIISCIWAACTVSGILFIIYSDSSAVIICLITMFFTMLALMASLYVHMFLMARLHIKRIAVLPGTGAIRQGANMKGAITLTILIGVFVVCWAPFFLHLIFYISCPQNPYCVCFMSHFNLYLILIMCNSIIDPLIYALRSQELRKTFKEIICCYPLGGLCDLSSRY
# [24] = system: H9c2; assay: cells; type: functional, cell-based; conditions: Rattus norvegicus, H9c2, Myocardium;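 note: confirmatory concentration-response retest of ultra-high-throughput screening hits for modulation of myocardial damage; cell death induced by hydrogen peroxide oxidative stress; compound pretreatment for 60 min then peroxide exposure for 2 h; potency is for protecting the cells against peroxide damage rather than for killing them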
smiles,measurement,setting,value
COc1ccc(-c2cc3nc(C)n(N)c(=O)c3s2)cc1,EC50,[1],10.6 µM (active)
same,EC50,[2],0.443 µM (active)
same,AC50,[3],1.13 µM (active)
same,AC50,[4],1.51 µM (active)
same,EC50,[5],> 133 µM (inactive)
same,AC50,[6],3.1 µM (active)
same,AC50,[7],0.95 µM (active)
same,AC50,[8],3.01 µM (active)
same,EC50,[9],3.64 µM (inconclusive)
same,AC50,[10],4.71 µM (active)
same,EC50,[11],2.27 µM (active)
same,IC50,[12],> 80 µM (inactive)
same,EC50,[13],2.15 µM (active)
same,AC50,[14],2.33 µM (active)
same,AC50,[15],8.99 µM (active)
same,IC50,[16],0.47 µM (active)
same,AC50,[17],3.72 µM (active)
same,EC50,[18],0.263 µM (active)
same,AC50,[19],4.71 µM (active)
same,AC50,[20],0.26 µM (active)
same,AC50,[21],0.289 µM (active)
Cc1nc2c(nc1C)C(=O)c1ccccc1C2=O,EC50,[22],95.6 µM (inactive)
COc1cccc(-c2cnc3c(NC=O)cc(-c4cccc(C(=O)N(C)C)c4)cn23)c1,EC50,[23],> 89.2 µM (inactive)
same,IC50,[24],> 79 µM (inactive)
COc1cccc(-c2cnc3c(NC(C)=O)cc(-c4cc(F)ccc4OC)cn23)c1,EC50,[23],> 89.2 µM (inactive)
COc1ccccc1-c1cc(NC=O)c2ncc(-c3ccc(F)cc3)n2c1,EC50,[23],> 9.91 µM (active)

# Source: ChEMBL document CHEMBL1201862, “PubChem BioAssay data set” (2004)
